Read-outs that look alike come from different tables or passages of the source.
Legend:
[1] = biological target: Mnk2 (Homo sapiens (Human), UniProt Q9HBH9); test: Mnk2 kinase inhibition, ADP-Glo ADP monitoring assay; assay type: biochemical
Description: (§1) The synthesized compounds then were tested for inhibition of the kinase activity (IC50) of Mnk1 and/or Mnk2 using the ADP monitoring assay for kinases described in Zegzouti, H.; Zdanovskaia, M.; Hsiao, K.; Goueli, S. A., ADP-Glo: A Bioluminescent and homogeneous ADP monitoring assay for kinases.

[2] = tested on: U937 cells; test: Cell viability assay (CellTiter-Glo), U937; assay type: cell-based; details: Homo sapiens
Description: (§2) To measure the ability of the new Mnk1/2 inhibitors to kill cancer cells in vitro, U937 or MV4-11 cells were incubated with different concentrations of test compounds and analyzed for apoptosis and cell viability at 5 and 24 hours post-treatment.

[3] = tested on: MV4-11 cells; test: Cell viability assay (CellTiter-Glo), MV4-11; assay type: cell-based; details: Homo sapiens
Description: as §2

[4] = biological target: T1, Mnk1 (Homo sapiens (Human), UniProt Q9BUB5); test: Mnk1 kinase inhibition, ADP-Glo ADP monitoring assay; assay type: biochemical
Target sequence in this assay (Q9BUB5 whole entry): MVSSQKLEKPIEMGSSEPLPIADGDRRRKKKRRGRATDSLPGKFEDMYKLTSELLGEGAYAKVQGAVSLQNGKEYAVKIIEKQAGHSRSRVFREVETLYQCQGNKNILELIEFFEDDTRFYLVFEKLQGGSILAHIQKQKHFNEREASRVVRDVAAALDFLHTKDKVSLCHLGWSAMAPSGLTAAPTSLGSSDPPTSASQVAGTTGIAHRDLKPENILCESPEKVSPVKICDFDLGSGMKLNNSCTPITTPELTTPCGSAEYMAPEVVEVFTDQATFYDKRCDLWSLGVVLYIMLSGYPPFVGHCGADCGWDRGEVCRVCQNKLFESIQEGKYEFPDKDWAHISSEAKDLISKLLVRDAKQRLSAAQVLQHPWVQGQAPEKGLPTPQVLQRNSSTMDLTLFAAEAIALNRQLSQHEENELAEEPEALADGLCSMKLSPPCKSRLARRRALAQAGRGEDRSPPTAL
Description: as §1

[5] = biological target: Mnk1; test: Cellular inhibition of Mnk1, flow cytometry of phospho-eIF-4E (Ser209), U937 cells; assay type: cell-based
Description: (§3) To evaluate inhibition of Mnk1 in cells, we utilized a flow cytometry-based assay based on activation of eIF-4E, the downstream target of Mnk1. The assay utilizes flow cytometry to quantitatively measure the amount of eIF-4E that is phosphorylated at residue Ser209 in cell lysate from U937 or MV4-11 cell lines. Cells grown in the presence of serum were treated with vehicle or test compounds across a range of concentrations. Levels of phospho-eIF-4E were measured and IC50 values were determined by logistic regression to quantify the potency of each compound.

[6] = biological target: Mnk1; test: Cellular inhibition of Mnk1, flow cytometry of phospho-eIF-4E (Ser209), MV4-11 cells; assay type: cell-based
Description: as §3

[7] = biological target: T1, Mnk1; test: Cellular inhibition of Mnk1, flow cytometry of phospho-eIF-4E (Ser209), U937 cells; assay type: cell-based; details: phospho-eIF-4E Ser209, flow cytometry, read-out: U937 pEIF4E IC50
Target sequence in this assay (Q9BUB5 whole entry, looked up): as the sequence (Q9BUB5 whole entry) above
Description: as §3

[8] = biological target: T1, Mnk1; test: Cellular inhibition of Mnk1, flow cytometry of phospho-eIF-4E (Ser209), MV4-11 cells; assay type: cell-based; details: phospho-eIF-4E Ser209, flow cytometry, read-out: MV4-11 pEIF4E IC50
Target sequence in this assay (Q9BUB5 whole entry, looked up): as the sequence (Q9BUB5 whole entry) above
Description: as §3

[9] = ADP-Glo kinase assay, read-out: Mnk2 IC50
[10] = U-937, U937 cells, ATP levels with CellTiter-Glo, read-out: U937 viability EC50
[11] = MV4-11 cells, ATP levels with CellTiter-Glo, read-out: MV4-11 viability EC50
[12] = read-out: Mnk1 inhibition IC50 (+,++,+++)
[13] = ADP-Glo kinase assay, read-out: Mnk2 inhibition IC50 (+,++,+++)
[14] = read-out: U937 pEIF4E cellular flow IC50 (+,++,+++), flow cytometry
[15] = read-out: MV4-11 pEIF4E cellular flow IC50 (+,++,+++), flow cytometry
[16] = U-937, read-out: U937 viability EC50
[17] = MV4-11, read-out: MV4-11 viability EC50
[18] = read-out: U937 pEIF4E IC50, phospho-eIF-4E Ser209, flow cytometry
[19] = read-out: MV4-11 pEIF4E IC50, phospho-eIF-4E Ser209, flow cytometry
[20] = unit inferred, read-out: Mnk1 IC50
[21] = ADP-Glo kinase assay, unit inferred, read-out: Mnk2 IC50

Sequence of Mnk2 (Q9HBH9 whole entry): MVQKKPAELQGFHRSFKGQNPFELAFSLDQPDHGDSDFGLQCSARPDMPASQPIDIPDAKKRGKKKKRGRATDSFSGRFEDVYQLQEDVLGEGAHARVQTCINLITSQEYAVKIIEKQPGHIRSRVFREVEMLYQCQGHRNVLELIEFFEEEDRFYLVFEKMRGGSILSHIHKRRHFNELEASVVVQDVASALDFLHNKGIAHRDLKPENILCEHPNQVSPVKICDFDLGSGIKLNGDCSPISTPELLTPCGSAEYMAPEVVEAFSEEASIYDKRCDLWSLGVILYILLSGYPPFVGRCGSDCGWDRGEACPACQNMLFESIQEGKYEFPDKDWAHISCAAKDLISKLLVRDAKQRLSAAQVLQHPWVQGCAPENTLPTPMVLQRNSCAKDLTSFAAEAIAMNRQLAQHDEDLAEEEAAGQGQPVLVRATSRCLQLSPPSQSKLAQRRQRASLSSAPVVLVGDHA

SMILES	IC50 [1, 9] [nM]	EC50 [2, 10] [nM]	EC50 [3, 11] [nM]	IC50 [4, 12] [nM]	IC50 [1, 13] [nM]	IC50 ([4]; read-out: Mnk1 IC50) [nM]	further results
c1ccc2c(c1)ncn2-c1ccnc(NC2CCOC2)n1 (stereo not drawn) [NUCC-0125583]	9.5	> 10000	620	–	–	–	–
O[C@H]1CC[C@@H](Nc2nccc(-n3cnc4ccccc43)n2)C1 [NUCC-0176164]	26	–	–	–	–	100	IC50 [7]: 62 nM; IC50 [8]: 36 nM; EC50 [2, 16]: > 10000 nM; EC50 [3, 17]: 180 nM
c1ccc2c(c1)ncn2-c1ccnc(NC2CCNC2)n1 (stereo not drawn) [NUCC-0125592]	40	> 10000	80	–	–	150	IC50 [5, 18]: 1100 nM; IC50 [6, 19]: 69 nM
c1cncc(CCNc2ccnc(-n3cnc4ccccc43)n2)c1 [NUCC-0176341]	26	–	–	–	–	210	IC50 [7]: 42 nM; IC50 [8]: 35 nM; EC50 [2, 16]: 13000 nM; EC50 [3, 17]: 190 nM
O[C@@H]1CC[C@H](Nc2nccc(-n3cnc4ccccc43)n2)C1 [NUCC-0176144]	28	–	–	–	–	150	IC50 [7]: 78 nM; IC50 [8]: 78 nM; EC50 [2, 16]: 5700 nM; EC50 [3, 17]: 170 nM
N#Cc1cnc(OCCc2ccncc2)nc1-n1cnc2ccccc21 [NUCC-0200786]	–	–	–	< 1000	< 1000	–	IC50 [5, 14]: < 1000 nM; IC50 [6, 15]: < 1000 nM
CCn1cncc1CNc1nccc(-c2cnn(-c3cccc(OC)c3)c2)n1 [NUCC-0054136]	–	10000	4500	–	–	10000	IC50 [5, 18]: 140 nM; IC50 [6, 19]: 100 nM
c1ccc2c(c1)ncn2-c1ccnc(Nc2ccncc2)n1 [NUCC-0125585]	–	10000	310	–	–	140	IC50 [5, 18]: 51 nM; IC50 [6, 19]: 40 nM
CN(C)CCNc1nccc(-c2cnn(C)c2)n1 [NUCC-0060898]	–	13000	190	–	–	5000	IC50 [5, 18]: 42 nM; IC50 [6, 19]: 35 nM
c1ccc2c(c1)ncn2-c1ccnc(NCCc2ccncc2)n1 [NUCC-0060957]	–	5300	120	–	–	–	–
Clc1cccc(-n2cc(-c3ccnc(NCCc4c[nH]cn4)n3)cn2)c1 [NUCC-0054135]	–	3400	240	–	–	6000	IC50 [5, 18]: 81 nM; IC50 [6, 19]: 66 nM
Clc1cnc(OCCc2ccncc2)nc1-n1cnc2ccccc21 [NUCC-0196254, 1-(5-chloro-2-(2-(pyridin-4-yl)ethoxy)pyrimidin-4-yl)-1H-benzo[d]imidazole]	–	–	–	< 1000	< 1000	–	IC50 [4, 20]: 54 nM; IC50 [1, 21]: 9.6 nM; IC50 [6, 15]: < 1000 nM
Clc1cnc(NCCc2ccncc2)nc1-n1cnc2ccccc21 [NUCC-0175697]	–	7000	350	–	–	–	–
FC(F)(F)c1cnc(NCCc2ccncc2)nc1-n1cnc2ccccc21 [NUCC-0176282, 4-(1H-benzo[d]imidazol-1-yl)-N-(2-(pyridin-4-yl)ethyl)-5-(trifluoromethyl)pyrimidin-2-amine]	28	10000	4500	–	–	93	IC50 [5, 18]: 140 nM; IC50 [6, 19]: 100 nM
Fc1cnc(NCCc2ccncc2)nc1-n1cnc2ccccc21 [NUCC-0176281]	49	3400	240	–	–	330	IC50 [5, 18]: 81 nM; IC50 [6, 19]: 66 nM
N#Cc1cnc(OC2CC(N)C2)nc1-n1cnc2ccccc21 (stereo not drawn) [NUCC-0200907, 2-(3-aminocyclobutoxy)-4-(1H-benzo[d]imidazol-1-yl)pyrimidine-5-carbonitrile]	–	–	–	< 1000	< 1000	–	IC50 [5, 14]: < 1000 nM; IC50 [6, 15]: < 1000 nM
c1ccc2c(c1)ccn2-c1ccnc(NCCc2cnc[nH]2)n1 [NUCC-0060958]	95	–	–	–	–	900	IC50 [5, 18]: 230 nM; IC50 [6, 19]: 47 nM
Clc1cnc(NCCc2cnc[nH]2)nc1-n1cnc2ccccc21 [NUCC-0175695]	72	> 10000	1000	–	–	530	IC50 [5, 18]: 630 nM; IC50 [6, 19]: 370 nM
c1ccc2c(c1)ccn2-c1ccnc(NCCc2ccncc2)n1 [NUCC-0060954]	–	2600	410	–	–	–	–
N#Cc1cnc(NCCc2ccncc2)nc1-n1cnc2ccccc21 [NUCC-0176343]	–	2600	410	–	–	–	–
O[C@H]1CC[C@H](Nc2nccc(-n3cnc4ccccc43)n2)C1 [NUCC-0176163]	41	–	–	–	–	200	IC50 [7]: 75 nM; IC50 [8]: 74 nM; EC50 [2, 16]: 8100 nM; EC50 [3, 17]: 220 nM
c1ccc2c(c1)ncn2-c1ccnc(N[C@H]2CCOC2)n1 [NUCC-0176148]	46	> 10000	440	–	–	–	–
c1ccc2c(c1)ncn2-c1ccnc(NN2CCOCC2)n1 [NUCC-0176146]	1000	–	–	–	–	12000	–
O=C(O)c1cc(-n2cnc3ccccc32)nc(NCCc2ccncc2)n1 [NUCC-0196239]	–	–	–	–	–	–	IC50 [4, 20]: > 10000 nM; IC50 [1, 21]: 6900 nM
c1ccc2c(c1)CCN2c1ccnc(N[C@H]2CCOC2)n1 [NUCC-0176231]	380	–	–	–	–	1100	–

The next lines start with results.

IC50 [1, 9] [nM]	EC50 [2, 10] [nM]	EC50 [3, 11] [nM]	IC50 [4, 12] [nM]	IC50 [1, 13] [nM]	IC50 ([4]; read-out: Mnk1 IC50) [nM]	SMILES	further results
–	–	–	< 1000	< 1000	–	N#Cc1cnc(OC2CCOC2)nc1-n1cnc2ccccc21 (stereo not drawn) [NUCC-0200792]	IC50 [5, 14]: < 1000 nM; IC50 [6, 15]: < 1000 nM
–	–	–	< 1000	< 1000	–	N#Cc1cnc(OCCc2ccccn2)nc1-n1cnc2ccccc21 [NUCC-0200790]	IC50 [5, 14]: < 1000 nM; IC50 [6, 15]: < 1000 nM
–	–	–	< 1000	< 1000	–	N#Cc1cnc(OCCN2CCCC2=O)nc1-n1cnc2ccccc21 [NUCC-0200788]	IC50 [5, 14]: < 1000 nM; IC50 [6, 15]: < 1000 nM
–	–	–	< 1000	< 1000	–	N#Cc1cnc(OC2CCNC2)nc1-n1cnc2ccccc21 (stereo not drawn) [NUCC-0200793]	IC50 [5, 14]: < 1000 nM; IC50 [6, 15]: < 1000 nM
–	–	–	< 1000	< 1000	–	Clc1cnc(OCCc2ccccn2)nc1-n1cnc2ccccc21 [NUCC-0200807]	IC50 [5, 14]: < 1000 nM; IC50 [6, 15]: < 1000 nM
–	–	–	< 1000	< 1000	–	NC1CC(Oc2ncc(Br)c(-n3cnc4ccccc43)n2)C1 (stereo not drawn) [NUCC-0201893]	–
–	–	–	1000 to 10000	–	–	N#Cc1cnc(OCc2ccncc2)nc1-n1cnc2ccccc21 [NUCC-0200904]	IC50 [1]: 1000 to 10000 nM
–	–	–	< 1000	< 1000	–	Clc1cnc(OC2CCCOC2)nc1-n1cnc2ccccc21 (stereo not drawn) [NUCC-0200803]	IC50 [5, 14]: < 1000 nM; IC50 [6, 15]: < 1000 nM
–	–	–	< 1000	< 1000	–	Nc1ccc(CCOc2ncc(Cl)c(-n3cnc4ccccc43)n2)cc1 [NUCC-0201892]	–
–	–	–	< 1000	< 1000	–	O=C1CCCN1CCOc1ncc(Cl)c(-n2cnc3ccccc32)n1 [NUCC-0200811]	IC50 [5, 14]: < 1000 nM; IC50 [6, 15]: < 1000 nM
–	–	–	< 1000	< 1000	–	Clc1cnc(OC2CCOC2)nc1-n1cnc2ccccc21 (stereo not drawn) [NUCC-0200805]	–
